Data from patent US8629159B2, “Thiazolidinedione analogues” (Metabolic Solutions Development Company, LLC, priority 2006, dated 2014).

What follows are compounds tested on Male Dahl salt-sensitive rats (assay: Antihypertensive action in hypertensive Dahl salt-sensitive rats (high salt diet), mean blood pressure by direct femoral arterial cannulation). Details: 6 hour fast, day 8; oral gavage daily; Compound 1 40 mg/kg/day, HCTZ 5 mg/kg/day.
Type: in vivo, rat
Procedure: Male Dahl salt-sensitive rats were made hypertensive by feeding of a high salt diet (4% salt) for 3 weeks and then treated daily with the indicated dose of hydrochlorothiazide (HCTZ), compound 1, or the combination of HCTZ and compound 1, as compared to the vehicle alone (1% carboxymethylcellulose/0.01% Tween 20) by oral gavage for 8 days. Mean blood pressure was measured by direct femoral arterial cannulation under fed conditions on day 7 and after a 6 hour fast on day 8.
Referring to FIG. 2 and Table C above, the antihypertensive action of compound 1 is additive with hydrocholothiazide (HCTZ). Data are mean and (SEM) mean blood pressure taken by direct cannulation. N=5; * p<0.05 less than blood pressure in HCTZ-treated rats.

Question: How did the “Mean blood pressure, Fasted” value turn out when NS(=O)(=O)c1cc2c(cc1Cl)NCNS2(=O)=O [HCTZ, hydrochlorothiazide, reference compound] was run?
Answer: 155

Same assay, conditions: fed, day 7; oral gavage daily; Compound 1 40 mg/kg/day, HCTZ 5 mg/kg/day

Question: NS(=O)(=O)c1cc2c(cc1Cl)NCNS2(=O)=O [HCTZ, hydrochlorothiazide, reference compound] was tested. Which “Mean blood pressure, Fed” value did it give?
Answer: 170

Each compound was assayed against T1, PPARγ (Homo sapiens, UniProt P37231) (assay: commercial PPARγ binding assay (Invitrogen; PPAR-LBD/Fluormone PPAR Green complex)). Details: 1 μM compound; mean of three experiments.
T1 construct: purchased Invitrogen Corporation, Carlsbad, Calif
T1 sequence (P37231 238-503 limits assumed): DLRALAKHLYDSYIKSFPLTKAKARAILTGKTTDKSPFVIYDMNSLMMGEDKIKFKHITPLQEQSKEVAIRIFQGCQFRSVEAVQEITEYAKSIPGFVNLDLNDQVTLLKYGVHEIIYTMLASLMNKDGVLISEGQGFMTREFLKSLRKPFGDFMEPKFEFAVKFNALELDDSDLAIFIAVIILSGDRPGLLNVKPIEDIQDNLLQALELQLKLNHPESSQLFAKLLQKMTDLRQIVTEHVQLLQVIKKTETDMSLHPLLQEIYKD
Procedure: The ability of several exemplary compounds of the present invention, shown in Table A, to bind to PPARγ was measured using a commercial binding assay (Invitrogen Corporation, Carlsbad, Calif.) that measures the test compounds ability to bind with PPAR-LBD/Fluormone PPAR Green complex. These assays were performed on three occasions with each assay using four separate wells (quadruplicate) at each concentration of tested compound. The data are mean and SEM of the values obtained from the three experiments. […] Compounds were added at the concentrations shown, which range from 0.1-100 micromolar.

Question: Which “Binding to PPARγ (Fluormone displacement signal)” value does the source give for CCc1ccc(CCOc2ccc(CC3(C)SC(=O)NC3=O)cc2)nc1 (single isomer, unassigned) [Compound 4] here?
Answer: 234

Question: CCc1ccc(CCOc2ccc(CC3(C)SC(=O)NC3=O)cc2)nc1 (single isomer, unassigned) [Compound 6] was tested. Which “Binding to PPARγ (Fluormone displacement signal)” value did it give?
Answer: 233

Question: How did the “Binding to PPARγ (Fluormone displacement signal)” value turn out when CCc1ccc(CCOc2ccc(CC3(C)SC(=O)NC3=O)cc2)nc1 (single isomer, unassigned) [Compound 7] was run?
Answer: 248

Question: How did the “Binding to PPARγ (Fluormone displacement signal)” value turn out when CCc1ccc([C@@H](O)COc2ccc(CC3SC(=O)NC3=O)cc2)nc1 (some centres unmarked) [Compound 2] was run?
Answer: 238

Question: Which “Binding to PPARγ (Fluormone displacement signal)” value does the source give for CCc1ccc([C@H](O)COc2ccc(CC3SC(=O)NC3=O)cc2)nc1 (some centres unmarked) [Compound 3] here?
Answer: 203

Same assay, conditions: 3 μM compound; mean of three experiments

Question: CCc1ccc(CCOc2ccc(CC3(C)SC(=O)NC3=O)cc2)nc1 (single isomer, unassigned) [Compound 4] was tested. Which “Binding to PPARγ (Fluormone displacement signal)” value did it give?
Answer: 224

Question: Which “Binding to PPARγ (Fluormone displacement signal)” value does the source give for CCc1ccc(CCOc2ccc(CC3(C)SC(=O)NC3=O)cc2)nc1 (single isomer, unassigned) [Compound 6] here?
Answer: 223

Question: How did the “Binding to PPARγ (Fluormone displacement signal)” value turn out when CCc1ccc(CCOc2ccc(CC3(C)SC(=O)NC3=O)cc2)nc1 (single isomer, unassigned) [Compound 7] was run?
Answer: 237

Question: Which “Binding to PPARγ (Fluormone displacement signal)” value does the source give for CCc1ccc([C@@H](O)COc2ccc(CC3SC(=O)NC3=O)cc2)nc1 (some centres unmarked) [Compound 2] here?
Answer: 236

Question: For CCc1ccc([C@H](O)COc2ccc(CC3SC(=O)NC3=O)cc2)nc1 (some centres unmarked) [Compound 3], which “Binding to PPARγ (Fluormone displacement signal)” value is on record?
Answer: 185

Same assay, conditions: 10 μM compound; mean of three experiments

Question: Which “Binding to PPARγ (Fluormone displacement signal)” value does the source give for CCc1ccc(CCOc2ccc(CC3(C)SC(=O)NC3=O)cc2)nc1 (single isomer, unassigned) [Compound 4] here?
Answer: 200

Question: For CCc1ccc(CCOc2ccc(CC3(C)SC(=O)NC3=O)cc2)nc1 (single isomer, unassigned) [Compound 6], which “Binding to PPARγ (Fluormone displacement signal)” value is on record?
Answer: 198

Question: For CCc1ccc(CCOc2ccc(CC3(C)SC(=O)NC3=O)cc2)nc1 (single isomer, unassigned) [Compound 7], which “Binding to PPARγ (Fluormone displacement signal)” value is on record?
Answer: 210

Question: CCc1ccc([C@@H](O)COc2ccc(CC3SC(=O)NC3=O)cc2)nc1 (some centres unmarked) [Compound 2] was tested. Which “Binding to PPARγ (Fluormone displacement signal)” value did it give?
Answer: 223

Question: How did the “Binding to PPARγ (Fluormone displacement signal)” value turn out when CCc1ccc([C@H](O)COc2ccc(CC3SC(=O)NC3=O)cc2)nc1 (some centres unmarked) [Compound 3] was run?
Answer: 134

Same assay, conditions: 50 μM compound; mean of three experiments

Question: Which “Binding to PPARγ (Fluormone displacement signal)” value does the source give for CCc1ccc(CCOc2ccc(CC3(C)SC(=O)NC3=O)cc2)nc1 (single isomer, unassigned) [Compound 4] here?
Answer: 122

Question: With CCc1ccc(CCOc2ccc(CC3(C)SC(=O)NC3=O)cc2)nc1 (single isomer, unassigned) [Compound 6] as the compound, how does the “Binding to PPARγ (Fluormone displacement signal)” value read?
Answer: 126

Question: CCc1ccc(CCOc2ccc(CC3(C)SC(=O)NC3=O)cc2)nc1 (single isomer, unassigned) [Compound 7] was tested. Which “Binding to PPARγ (Fluormone displacement signal)” value did it give?
Answer: 144

Question: For CCc1ccc([C@@H](O)COc2ccc(CC3SC(=O)NC3=O)cc2)nc1 (some centres unmarked) [Compound 2], which “Binding to PPARγ (Fluormone displacement signal)” value is on record?
Answer: 162

Question: CCc1ccc([C@H](O)COc2ccc(CC3SC(=O)NC3=O)cc2)nc1 (some centres unmarked) [Compound 3] was tested. Which “Binding to PPARγ (Fluormone displacement signal)” value did it give?
Answer: 88

Same assay, conditions: 100 μM compound; mean of three experiments

Question: How did the “Binding to PPARγ (Fluormone displacement signal)” value turn out when CCc1ccc(CCOc2ccc(CC3(C)SC(=O)NC3=O)cc2)nc1 (single isomer, unassigned) [Compound 4] was run?
Answer: 91

Question: With CCc1ccc(CCOc2ccc(CC3(C)SC(=O)NC3=O)cc2)nc1 (single isomer, unassigned) [Compound 6] as the compound, how does the “Binding to PPARγ (Fluormone displacement signal)” value read?
Answer: 99

Question: With CCc1ccc(CCOc2ccc(CC3(C)SC(=O)NC3=O)cc2)nc1 (single isomer, unassigned) [Compound 7] as the compound, how does the “Binding to PPARγ (Fluormone displacement signal)” value read?
Answer: 105

Question: CCc1ccc([C@@H](O)COc2ccc(CC3SC(=O)NC3=O)cc2)nc1 (some centres unmarked) [Compound 2] was tested. Which “Binding to PPARγ (Fluormone displacement signal)” value did it give?
Answer: 136

Question: Which “Binding to PPARγ (Fluormone displacement signal)” value does the source give for CCc1ccc([C@H](O)COc2ccc(CC3SC(=O)NC3=O)cc2)nc1 (some centres unmarked) [Compound 3] here?
Answer: 77

Same assay, conditions: .1 μM compound; mean of three experiments

Question: CCc1ccc(CCOc2ccc(CC3(C)SC(=O)NC3=O)cc2)nc1 (single isomer, unassigned) [Compound 4] was tested. Which “Binding to PPARγ (Fluormone displacement signal)” value did it give?
Answer: 236

Question: How did the “Binding to PPARγ (Fluormone displacement signal)” value turn out when CCc1ccc(CCOc2ccc(CC3(C)SC(=O)NC3=O)cc2)nc1 (single isomer, unassigned) [Compound 6] was run?
Answer: 246

Question: Which “Binding to PPARγ (Fluormone displacement signal)” value does the source give for CCc1ccc(CCOc2ccc(CC3(C)SC(=O)NC3=O)cc2)nc1 (single isomer, unassigned) [Compound 7] here?
Answer: 249

Question: For CCc1ccc([C@@H](O)COc2ccc(CC3SC(=O)NC3=O)cc2)nc1 (some centres unmarked) [Compound 2], which “Binding to PPARγ (Fluormone displacement signal)” value is on record?
Answer: 231

Question: How did the “Binding to PPARγ (Fluormone displacement signal)” value turn out when CCc1ccc([C@H](O)COc2ccc(CC3SC(=O)NC3=O)cc2)nc1 (some centres unmarked) [Compound 3] was run?
Answer: 226

Same assay, conditions: .3 μM compound; mean of three experiments

Question: With CCc1ccc(CCOc2ccc(CC3(C)SC(=O)NC3=O)cc2)nc1 (single isomer, unassigned) [Compound 4] as the compound, how does the “Binding to PPARγ (Fluormone displacement signal)” value read?
Answer: 230

Question: For CCc1ccc(CCOc2ccc(CC3(C)SC(=O)NC3=O)cc2)nc1 (single isomer, unassigned) [Compound 6], which “Binding to PPARγ (Fluormone displacement signal)” value is on record?
Answer: 246

Question: For CCc1ccc(CCOc2ccc(CC3(C)SC(=O)NC3=O)cc2)nc1 (single isomer, unassigned) [Compound 7], which “Binding to PPARγ (Fluormone displacement signal)” value is on record?
Answer: 246

Question: With CCc1ccc([C@@H](O)COc2ccc(CC3SC(=O)NC3=O)cc2)nc1 (some centres unmarked) [Compound 2] as the compound, how does the “Binding to PPARγ (Fluormone displacement signal)” value read?
Answer: 233

Question: With CCc1ccc([C@H](O)COc2ccc(CC3SC(=O)NC3=O)cc2)nc1 (some centres unmarked) [Compound 3] as the compound, how does the “Binding to PPARγ (Fluormone displacement signal)” value read?
Answer: 221

Same assay, conditions: FIG. 1 and Table B

Question: With CCc1ccc([C@@H](O)COc2ccc(CC3SC(=O)NC3=O)cc2)nc1 (some centres unmarked) [Compound 2] as the compound, how does the “binding to PPARγ (in words)” value read?
Answer: particularly poor binders
